In BindingDB's records for doi:10.7270/Q2V1236D (Burnham Center For Chemical Genomics, 2009):

These molecules were tested against his6-Siah1 (aa 81-282) (Homo sapiens, UniProt Q8IUQ4) (assay: inhibitors of Siah-1 ligand interaction – biochemical, TR-FRET, dose response (AID 2141)).
Chain of his6-Siah1 (aa 81-282) (Q8IUQ4 whole entry, looked up, the tested form may be a part): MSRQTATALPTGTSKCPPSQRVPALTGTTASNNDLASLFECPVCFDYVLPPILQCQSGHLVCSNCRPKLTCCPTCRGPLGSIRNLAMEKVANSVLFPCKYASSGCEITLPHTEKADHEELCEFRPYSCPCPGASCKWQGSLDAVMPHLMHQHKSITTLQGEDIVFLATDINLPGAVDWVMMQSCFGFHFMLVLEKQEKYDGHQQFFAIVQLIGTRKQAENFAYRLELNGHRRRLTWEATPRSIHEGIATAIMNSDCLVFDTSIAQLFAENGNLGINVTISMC
In the case of `C[N+]1(CCNC(=O)CN=O)CCCCC1`, the IC50 is reported as 130 µM. `CCOC(=O)C1(C)CC(=Nc2ccc(O)cc2)C(=O)N1c1ccc(O)cc1` (stereo not given) showed an IC50 of 50.7 µM. For `O=C(Nc1ccc(Br)cc1)c1ccc(-n2c(O)c3c(c2O)CC=CC3)cc1` [4-[1,3-bis(oxidanylidene)-3a,4,7,7a-tetrahydroisoindol-2-yl]-N-(4-bromophenyl)benzamide], the IC50 was 4.27 µM. `CC1(C)OC(C)(C)C(=CNc2ccc(O)cc2)C1=O` [4-[(4-hydroxyanilino)methylene]-2,2,5,5-tetramethyldihydro-3(2H)-furanone] showed an IC50 of 2.93 µM. Molecule `CC(C)(C)c1cc(-c2cs/c(=N\c3ccccc3)n2Cc2ccc(C(=O)O)cc2)cc(C(C)(C)C)c1O` [4-[[4-(3,5-ditert-butyl-4-oxidanyl-phenyl)-2-phenylazanyl-1,3-thiazol-3-ium-3-yl]methyl]benzoic acid;bromide] has an IC50 of 6.69 µM.
